# Entries after “also recorded” stand apart in the source; their conditions may differ.
# What was measured:
# [1] = target: T1, human integrin α4β1 (overexpressed in LN18 α4β1 cells; pMSCV-hITGA4-IRES-hITGB1) (Homo sapiens, UniProt P05556+P13612); assay: Competitive inhibition of R-BC154 (50 nM) binding to LN18 α4β1 cells by BOP, flow cytometry
# T1 construct: expressed in transfected cells; host or cells: LN18 human glioblastoma cells (ATCC CRL-2610), retrovirally transduced with pMSCV-hITGA4-IRES-hITGB1
# Procedure: (§1) Stable LN18 cells over-expressing human integrin α4β1 and α9β1 were generated via retroviral transduction of human glioblastoma LN18 cell lines. Silencing of background α4 expression in parental and α9β1 transduced LN18 cells was achieved by retroviral vector delivery of α4 shRNA.
# (§2) (a) Chemical structure of α9β1/α4β1 integrin antagonist BOP (2). […] Data is mean±SEM (n=3) (d) Analysis of the WBC, (e) LSK and (f) LSKSLAM content in the peripheral blood of mice treated with BOP (10 mg/kg) over 90 mins. Data is mean±SEM (n=5 per time point).
# (§3) Flow cytometric analysis was performed using an LSR II (BD Biosciences) as previously described in J. Grassinger, et al Blood, 2009, 114, 49-59. […] For BM and PB analysis, up to 5×10^6 cells were analysed at a rate of 10-20 k cell events/sec. For analysis of PB LSKSLAM, up to 1×10^6 events were saved. Cell sorting was performed on a Cytopeia Influx (BD) as previously described in J. Grassinger, et al.
# (§4) Stable LN18 cells ((ATCC number: CRL-2610) over-expressing integrin α4β1 (LN18 α4β1) or α9β1 (LN18 α9β1)) were generated by retroviral transduction using the pMSCV-hITGA4-IRES-hITGB1 and pMSCV-hITGA9-IRES-hITGB1 vectors as previously described in J Grassinger, et al Blood, 2009, 114, 49-59 and were maintained in DMEM supplemented with 2 mM L-glutamate in 10% FBS. […]
# [2] = target: T2, human integrin α9β1 (overexpressed in LN18 α9β1 cells, α4-silenced; pMSCV-hITGA9-IRES-hITGB1) (Homo sapiens, UniProt P05556+Q13797); assay: Competitive inhibition of R-BC154 (50 nM) binding to LN18 α9β1 cells by BOP, flow cytometry
# T2 construct: expressed in transfected cells; host or cells: LN18 human glioblastoma cells (ATCC CRL-2610), retrovirally transduced with pMSCV-hITGA9-IRES-hITGB1, α4 silenced with pSM2c-shITGA4
# Procedure: as §1, §2, §3, §4
# [3] = target: α9β1 (Homo sapiens, UniProt P05556+Q13797); conditions: Pepinsky et al (2002) FIG. 4b; cited from earlier work
# [4] = system: WBC, LSK and LSKSLAM in PB; assay: Mobilization of HSC and progenitors into peripheral blood; format: in vivo, mouse
# Procedure: For mobilization experiments, all mice received subcutaneous injections at 100 μl/10 gm body weight and PB was harvested by throat bleed using EDTA coated syringes.
# [5] = system: α4β1 and α9β1 integrins binding to VCAM-1 and Opn; conditions: in vitro; cited from earlier work
# [6] = target: T3, α4β1 integrin (Homo sapiens, UniProt P05556+P13612); assay: Competitive inhibition of R-BC154 binding to α4β1 LN18 cells; conditions: 1 mM Ca2+/Mg2+
# T3 construct: expressed in transfected cells; host or cells: human glioblastoma LN18 (ATCC CRL-2610), retrovirally transduced
# Procedure: (§5) Cells were incubated for 90 min at 37° C., washed with PBS, pelleted by centrifugation and resuspended in PBS (200 μl) for flow cytometric analysis. % Max mean fluorescence intensity (MFI) was plotted against the log concentration of BOP and the data fitted to a ligand binding-sigmoidal dose-response curve and IC50 values obtained from graphs.
# [7] = system: α9β1 and α4β1 integrin binding on HSC and progenitors (LSK and LSKSLAM); assay: Competitive displacement of R-BC154 binding to LSK and LSKSLAM cells; format: cell-based, mouse; conditions: 500 nM, 1 mM Ca2+/Mg2+
# Procedure: as §5
# [8] = target: T4, α9β1 integrin (Homo sapiens, UniProt P05556+Q13797); assay: Competitive inhibition of R-BC154 binding to α9β1 LN18 cells; conditions: 1 mM Ca2+/Mg2+
# T4 construct: expressed in transfected cells; host or cells: human glioblastoma LN18 (ATCC CRL-2610), retrovirally transduced; α4 silenced with pSM2c-shITGA4
# Procedure: as §5
# T2 sequence (Q13797 30-1035): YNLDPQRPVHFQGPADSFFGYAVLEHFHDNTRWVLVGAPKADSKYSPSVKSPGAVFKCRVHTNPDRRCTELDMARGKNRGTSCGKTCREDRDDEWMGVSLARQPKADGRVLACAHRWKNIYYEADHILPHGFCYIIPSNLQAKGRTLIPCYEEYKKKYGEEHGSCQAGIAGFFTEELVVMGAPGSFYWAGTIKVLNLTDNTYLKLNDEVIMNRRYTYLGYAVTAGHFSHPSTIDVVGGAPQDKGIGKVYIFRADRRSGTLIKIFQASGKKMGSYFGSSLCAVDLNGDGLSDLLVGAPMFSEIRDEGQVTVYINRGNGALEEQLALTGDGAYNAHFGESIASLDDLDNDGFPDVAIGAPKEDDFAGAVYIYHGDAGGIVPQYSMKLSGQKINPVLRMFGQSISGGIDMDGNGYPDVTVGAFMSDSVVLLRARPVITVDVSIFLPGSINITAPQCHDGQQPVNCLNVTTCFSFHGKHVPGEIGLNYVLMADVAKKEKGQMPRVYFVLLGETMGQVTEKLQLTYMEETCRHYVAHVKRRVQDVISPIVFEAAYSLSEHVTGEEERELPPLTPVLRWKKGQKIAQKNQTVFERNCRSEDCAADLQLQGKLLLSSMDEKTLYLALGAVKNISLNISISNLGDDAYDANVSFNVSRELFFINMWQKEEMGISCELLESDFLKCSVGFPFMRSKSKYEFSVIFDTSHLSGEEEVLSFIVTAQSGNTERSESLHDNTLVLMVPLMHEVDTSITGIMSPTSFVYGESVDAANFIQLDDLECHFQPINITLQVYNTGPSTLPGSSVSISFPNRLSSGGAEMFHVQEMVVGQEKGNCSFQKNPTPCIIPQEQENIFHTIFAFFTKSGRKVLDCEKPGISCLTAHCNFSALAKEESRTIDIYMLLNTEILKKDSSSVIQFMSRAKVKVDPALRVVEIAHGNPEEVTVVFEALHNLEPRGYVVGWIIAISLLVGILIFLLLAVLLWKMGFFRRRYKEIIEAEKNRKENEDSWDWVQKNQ
# T2 sequence (P05556 21-798): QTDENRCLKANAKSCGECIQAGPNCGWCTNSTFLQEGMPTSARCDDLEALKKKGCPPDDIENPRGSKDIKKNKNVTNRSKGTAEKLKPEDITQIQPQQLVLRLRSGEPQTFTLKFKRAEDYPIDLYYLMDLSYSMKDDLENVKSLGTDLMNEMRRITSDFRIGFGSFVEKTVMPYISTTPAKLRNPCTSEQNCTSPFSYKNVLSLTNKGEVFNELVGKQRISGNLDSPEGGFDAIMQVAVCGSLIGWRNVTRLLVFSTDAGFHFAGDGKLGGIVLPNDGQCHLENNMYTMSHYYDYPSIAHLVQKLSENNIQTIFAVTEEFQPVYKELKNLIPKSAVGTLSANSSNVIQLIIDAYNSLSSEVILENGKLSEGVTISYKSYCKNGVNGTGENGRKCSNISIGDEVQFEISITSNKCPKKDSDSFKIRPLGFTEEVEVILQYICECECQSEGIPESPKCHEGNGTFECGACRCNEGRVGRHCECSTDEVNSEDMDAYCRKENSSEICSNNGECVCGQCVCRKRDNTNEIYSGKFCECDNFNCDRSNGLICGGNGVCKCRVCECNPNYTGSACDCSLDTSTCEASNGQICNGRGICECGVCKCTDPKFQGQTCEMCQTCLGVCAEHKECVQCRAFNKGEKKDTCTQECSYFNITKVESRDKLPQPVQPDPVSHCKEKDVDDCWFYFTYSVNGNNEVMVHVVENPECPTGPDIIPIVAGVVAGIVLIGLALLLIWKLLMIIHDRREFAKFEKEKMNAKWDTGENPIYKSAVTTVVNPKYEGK
# Chain of α9β1 (Q13797 30-1035): as the sequence (Q13797 30-1035) above
# Chain of α9β1 (P05556 21-798): as the sequence (P05556 21-798) above
# T4 sequence (Q13797 30-1035): as the sequence (Q13797 30-1035) above
# T4 sequence (P05556 21-798): as the sequence (P05556 21-798) above
# T3 sequence (P13612 34-1032): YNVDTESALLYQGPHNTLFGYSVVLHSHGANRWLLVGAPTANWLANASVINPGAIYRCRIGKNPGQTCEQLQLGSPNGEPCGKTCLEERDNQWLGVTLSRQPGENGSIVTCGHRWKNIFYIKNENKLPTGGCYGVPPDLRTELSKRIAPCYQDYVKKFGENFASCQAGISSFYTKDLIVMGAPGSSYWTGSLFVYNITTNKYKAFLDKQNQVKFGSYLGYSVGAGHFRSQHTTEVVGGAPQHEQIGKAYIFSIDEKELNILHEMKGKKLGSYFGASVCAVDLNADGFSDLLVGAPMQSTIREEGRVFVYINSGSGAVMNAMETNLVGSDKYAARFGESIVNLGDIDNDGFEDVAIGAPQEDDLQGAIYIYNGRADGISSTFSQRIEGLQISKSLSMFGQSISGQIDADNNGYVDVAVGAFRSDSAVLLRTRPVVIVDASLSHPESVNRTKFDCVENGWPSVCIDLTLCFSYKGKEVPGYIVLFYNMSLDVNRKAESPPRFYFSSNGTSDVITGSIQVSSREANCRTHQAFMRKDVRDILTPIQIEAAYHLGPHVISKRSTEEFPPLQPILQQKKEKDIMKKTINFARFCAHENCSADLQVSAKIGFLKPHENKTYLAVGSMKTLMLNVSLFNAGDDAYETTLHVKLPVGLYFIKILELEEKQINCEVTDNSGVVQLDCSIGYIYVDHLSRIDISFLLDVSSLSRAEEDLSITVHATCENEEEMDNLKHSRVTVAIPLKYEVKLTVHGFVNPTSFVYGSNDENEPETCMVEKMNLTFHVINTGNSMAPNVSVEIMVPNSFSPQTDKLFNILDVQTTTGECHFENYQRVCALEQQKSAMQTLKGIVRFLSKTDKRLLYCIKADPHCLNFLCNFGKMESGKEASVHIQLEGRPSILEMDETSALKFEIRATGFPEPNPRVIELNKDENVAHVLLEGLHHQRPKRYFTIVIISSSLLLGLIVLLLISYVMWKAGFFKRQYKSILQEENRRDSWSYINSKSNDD
# T3 sequence (P05556 21-798): as the sequence (P05556 21-798) above
# T1 sequence (P13612 34-1032): as the sequence (P13612 34-1032) above
# T1 sequence (P05556 21-798): as the sequence (P05556 21-798) above
SMILES,IC50 [1] [nM],IC50 [2] [nM],off-rates for α9β1 compared to α4β1 [3],"PB WBC, LSK and LSKSLAM compared to the saline control ([4]; 10 mg/kg, C57BL/6 mice, up to 90 mins)",mobilization of HSC with long-term multi-lineage engraftment potential ([4]; summary statement),inhibition of binding of α4β1 and α9β1 integrins to VCAM-1 and Opn [5],inhibition of α4β1 integrin (competitive inhibition of R-BC154 binding) [6],inhibition of α9β1 and α4β1 integrin binding on HSC and progenitors (displacement of R-BC154) [7],inhibition of α9β1 integrin (competitive inhibition of R-BC154 binding) [8]
"O=C(O)[C@H](Cc1ccc(OC(=O)N2CCCC2)cc1)NC(=O)[C@@H]1CCCN1S(=O)(=O)c1ccccc1 [BOP (2), N-(Benzenesulfonyl)-L-prolyl-L-O-(1-pyrrolidinylcarbonyl)tyrosine]",2.39,2.62,,,,,,,
"O=C(O)[C@H](Cc1ccc(OC(=O)N2CCCC2)cc1)NC(=O)[C@@H]1CCCN1S(=O)(=O)c1ccccc1 [BOP, N-(Benzenesulfonyl)-L-prolyl-L-O-(1-pyrrolidinylcarbonyl)tyrosine]",,,significantly reduced off-rates,significant increases,effectively and rapidly mobilized,nanomolar inhibitory potencies; also recorded: can inhibit,potent inhibitor,effectively inhibited,potent inhibitor

# From US20170348375A1, “DISLODGEMENT AND RELEASE OF HSC FROM THE BONE MARROW STEM CELL NICHE USING ALPHA9 INTEGRIN ANTAGONISTS” (COMMONWEALTH SCIENTIFIC AND INDUSTRIAL RESEARCH ORGANISATION, priority 2014, published 2017)
